Columns and labels:
[1] = target: Epidermal growth factor receptor [T790M,L858R] (Homo sapiens, UniProt P00533, L858R/T790M); test: Potency Assessment EGFR (WT) and EGFR Mutants
Experimental: (§1) The next day, tested compounds at a series of concentrations were added into each individual well of the plates, and the plates were incubated for 4 h at 37 C. with 5% CO2. […] The assay is an electrochemiluminescent method for determining both phosphorylated and total EGFR of cells with an MSD SECTOR Imager and the ratio of p-EGFR/total EGFR can be generated by the machine. The Her2 (Y1248) phosphorylation level (activity) of cells in each well were measured with MSD Kit named Phospho-ErbB2 (Tyr1248) Assay Whole Cell Lysate Kit according to the manufacturer's instruction (MESO SCALE DISCOVERY, Cat #K151CLD-3). The assay is an electrochemiluminescent method (MESO SCALE DISCOVERY) for determining both phosphorylated and total Her2 of cells with an MSD SECTOR Imager and then the ratio of p-Her2/total Her2 can be generated by the machine.

[2] = target: Epidermal growth factor receptor (Homo sapiens, UniProt P00533); test: Potency Assessment EGFR (WT) and EGFR Mutants
Sequence of Epidermal growth factor receptor (P00533 whole entry): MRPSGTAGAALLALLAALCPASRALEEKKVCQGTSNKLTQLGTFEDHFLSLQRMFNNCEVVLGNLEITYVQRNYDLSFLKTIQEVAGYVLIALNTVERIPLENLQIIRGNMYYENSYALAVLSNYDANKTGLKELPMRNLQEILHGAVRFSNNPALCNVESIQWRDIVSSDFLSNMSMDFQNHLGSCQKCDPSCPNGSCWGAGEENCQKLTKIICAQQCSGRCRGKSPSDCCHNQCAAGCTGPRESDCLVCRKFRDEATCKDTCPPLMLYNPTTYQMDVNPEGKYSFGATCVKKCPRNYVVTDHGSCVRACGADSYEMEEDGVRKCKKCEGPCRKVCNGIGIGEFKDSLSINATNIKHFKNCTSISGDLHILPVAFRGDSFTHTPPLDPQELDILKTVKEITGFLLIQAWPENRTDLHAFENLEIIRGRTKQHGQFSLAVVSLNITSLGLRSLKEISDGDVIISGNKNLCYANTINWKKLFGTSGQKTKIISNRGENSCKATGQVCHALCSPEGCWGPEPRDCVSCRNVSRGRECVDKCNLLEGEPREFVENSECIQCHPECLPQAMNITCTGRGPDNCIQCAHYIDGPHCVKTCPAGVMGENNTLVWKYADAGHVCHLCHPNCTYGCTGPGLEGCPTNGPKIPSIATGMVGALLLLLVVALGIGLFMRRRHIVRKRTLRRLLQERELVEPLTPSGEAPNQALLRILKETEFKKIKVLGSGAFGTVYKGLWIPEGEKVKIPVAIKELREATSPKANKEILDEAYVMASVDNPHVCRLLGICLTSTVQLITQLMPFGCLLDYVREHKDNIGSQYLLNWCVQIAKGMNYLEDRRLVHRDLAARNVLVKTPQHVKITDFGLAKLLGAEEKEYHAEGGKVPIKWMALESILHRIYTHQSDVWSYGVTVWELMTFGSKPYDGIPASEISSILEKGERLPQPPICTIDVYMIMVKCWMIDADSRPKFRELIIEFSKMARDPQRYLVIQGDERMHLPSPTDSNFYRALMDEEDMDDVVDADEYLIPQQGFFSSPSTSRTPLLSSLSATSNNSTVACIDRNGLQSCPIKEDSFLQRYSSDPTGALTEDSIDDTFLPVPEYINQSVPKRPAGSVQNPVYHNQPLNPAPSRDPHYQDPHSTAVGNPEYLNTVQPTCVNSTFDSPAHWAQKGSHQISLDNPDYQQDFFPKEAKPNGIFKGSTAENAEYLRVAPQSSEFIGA
Experimental: as §1

Sequence of Epidermal growth factor receptor [T790M,L858R] (P00533 25-1210 T790M/L858R limits assumed): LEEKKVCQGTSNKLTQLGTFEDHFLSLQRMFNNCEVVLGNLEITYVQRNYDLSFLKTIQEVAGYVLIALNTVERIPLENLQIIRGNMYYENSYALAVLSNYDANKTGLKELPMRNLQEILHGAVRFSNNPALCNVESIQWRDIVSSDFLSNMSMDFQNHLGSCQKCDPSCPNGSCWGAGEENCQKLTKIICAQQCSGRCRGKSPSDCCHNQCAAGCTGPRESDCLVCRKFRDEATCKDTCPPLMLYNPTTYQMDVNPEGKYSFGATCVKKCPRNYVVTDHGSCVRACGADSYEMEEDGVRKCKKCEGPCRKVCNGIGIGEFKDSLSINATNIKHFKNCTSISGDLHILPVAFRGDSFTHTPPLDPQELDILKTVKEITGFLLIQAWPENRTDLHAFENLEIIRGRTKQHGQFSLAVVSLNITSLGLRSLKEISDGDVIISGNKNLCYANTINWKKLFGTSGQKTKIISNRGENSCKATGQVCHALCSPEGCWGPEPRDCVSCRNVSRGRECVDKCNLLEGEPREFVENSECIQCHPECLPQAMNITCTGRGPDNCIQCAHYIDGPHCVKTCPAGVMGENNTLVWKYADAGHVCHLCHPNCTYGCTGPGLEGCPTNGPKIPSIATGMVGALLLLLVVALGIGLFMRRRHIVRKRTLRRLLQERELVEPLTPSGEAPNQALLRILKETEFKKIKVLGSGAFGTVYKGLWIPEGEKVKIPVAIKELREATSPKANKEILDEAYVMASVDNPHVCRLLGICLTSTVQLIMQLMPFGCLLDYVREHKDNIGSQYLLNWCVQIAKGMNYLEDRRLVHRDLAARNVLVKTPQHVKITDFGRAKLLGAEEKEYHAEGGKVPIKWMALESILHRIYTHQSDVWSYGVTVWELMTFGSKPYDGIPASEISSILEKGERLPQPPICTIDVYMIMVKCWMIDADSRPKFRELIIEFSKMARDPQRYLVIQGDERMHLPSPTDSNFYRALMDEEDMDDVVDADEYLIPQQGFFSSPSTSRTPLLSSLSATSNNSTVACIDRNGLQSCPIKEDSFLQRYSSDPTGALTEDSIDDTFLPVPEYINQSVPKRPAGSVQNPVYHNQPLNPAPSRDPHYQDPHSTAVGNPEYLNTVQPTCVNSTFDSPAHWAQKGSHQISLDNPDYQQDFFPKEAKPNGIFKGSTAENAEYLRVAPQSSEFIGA

Structure (SMILES)	IC50 [1] [µM]	IC50 [2] [µM]
C=CC(=O)Nc1cc(Nc2ncnc(Nc3cnc(C)cc3C(C)(C)O)n2)c(OC)cc1N(C)CCN(C)C [US11896597, Compound 6]	0.0084	0.103
C=CC(=O)Nc1cc(Nc2ncnc(Nc3ccc(C(F)(F)F)cc3C(C)(C)O)n2)c(OC)cc1N(C)CCN(C)C [US11896597, Compound 13]	0.0011	0.0206
C=CC(=O)Nc1cc(Nc2nccc(Nc3cc(Cl)c(F)cc3C(C)(C)O)n2)c(OC)cc1N(C)C[C@H]1C[C@H](C)CN1C [US11896597, Compound 90]	0.0014	0.357

More lines, in order of falling IC50 [1], values ahead:

IC50 [1] [µM]	IC50 [2] [µM]	Structure (SMILES)
0.0026	0.0626	C=CC(=O)Nc1cc(Nc2ncnc(Nc3ccccc3C3(O)COC3)n2)c(OC)cc1N(C)CCN(C)C [US11896597, Compound 10]
0.0017	0.0881	C=CC(=O)Nc1cc(Nc2ncnc(Nc3ccc(C)nc3C(C)(C)O)n2)c(OC)cc1N(C)CCN(C)C [US11896597, Compound 7]
0.001	0.104	C=CC(=O)Nc1cc(Nc2ncnc(Nc3cc(F)c(F)cc3C(C)(C)O)n2)c(OC)cc1N(C)CCN1CCCCC1 [US11896597, Compound 24]

Source: BindingDB's records for patent US11896597 (Dizal (Jiangsu) Pharmaceutical, 2024)
